Read-outs that look alike come from different tables or passages of the source.

Here are results for 20 compounds from patent publication US9686984B2, “Macrocyclic picolinamides as fungicides” (DOW AGROSCIENCES LLC, priority 2014, dated 2017).

Test [1] relates to Zymoseptoria tritici. Put plainly: Leaf Blotch of Wheat (SEPTTR) disease control on wheat seedlings. Type of test: in vivo. Particulars: Low Volume (121.5 g/H). As to the method: Example A: Evaluation of Fungicidal Activity: Leaf Blotch of Wheat (Mycosphaerella graminicola; Anamorph: Zymoseptoria tritici; Bayer code […]) Technical grades of materials were dissolved in acetone, which were then mixed with nine volumes of water containing 110 ppm Triton X-100. The fungicide solutions were applied onto wheat seedlings using an automated booth sprayer to run-off. All sprayed plants were allowed to air dry prior to further handling. All fungicides were evaluated using the aforementioned method for their activity vs. all target diseases, unless stated otherwise. Wheat leaf blotch and brown rust activity were also evaluated using track spray applications, in which case the fungicides were formulated as EC formulations, containing 0.1% Trycol 5941 in the spray solutions. Wheat plants (variety Yuma) were grown from seed in a greenhouse in 50% mineral soil/50% soil-less Metro mix until the first leaf was fully emerged, with 7-10 seedlings per pot. These plants were inoculated with an aqueous spore suspension of Septoria tritici either prior to or after fungicide treatments. After inoculation the plants were kept in 100% relative humidity (one day in a dark dew chamber followed by two to three days in a lighted dew chamber at 20° C.) to permit spores to germinate and infect the leaf. The plants were then transferred to a greenhouse set at 20° C. for disease to develop. When disease symptoms were fully expressed on the 1st leaves of untreated plants, infection levels were assessed on a scale of 0 to 100 percent disease severity. Percent disease control was calculated using the ratio of disease severity on treated plants relative to untreated plants.

The subject of test [2] is Puccinia triticina. Put plainly: Wheat Brown Rust (PUCCRT) disease control on wheat seedlings. Type of test: in vivo. The conditions noted are these: Low Volume (121.5 g/H). As to the method: Technical grades of materials were dissolved in acetone, which were then mixed with nine volumes of water containing 110 ppm Triton X-100. The fungicide solutions were applied onto wheat seedlings using an automated booth sprayer to run-off. All sprayed plants were allowed to air dry prior to further handling. All fungicides were evaluated using the aforementioned method for their activity vs. all target diseases, unless stated otherwise. Wheat leaf blotch and brown rust activity were also evaluated using track spray applications, in which case the fungicides were formulated as EC formulations, containing 0.1% Trycol 5941 in the spray solutions. Wheat plants (variety Yuma) were grown from seed in a greenhouse in 50% mineral soil/50% soil-less Metro mix until the first leaf was fully emerged, with 7-10 seedlings per pot. These plants were inoculated with an aqueous spore suspension of Septoria tritici either prior to or after fungicide treatments. After inoculation the plants were kept in 100% relative humidity (one day in a dark dew chamber followed by two to three days in a lighted dew chamber at 20° C.) to permit spores to germinate and infect the leaf. The plants were then transferred to a greenhouse set at 20° C. for disease to develop. When disease symptoms were fully expressed on the 1st leaves of untreated plants, infection levels were assessed on a scale of 0 to 100 percent disease severity. Percent disease control was calculated using the ratio of disease severity on treated plants relative to untreated plants. Example B: Evaluation of Fungicidal Activity: Wheat Brown Rust (Puccinia triticina; Synonym: Puccinia recondita f. sp. tritici; Bayer code PUCCRT) Wheat plants (variety Yuma) were grown from seed in a greenhouse in 50% mineral soil/50% soil-less Metro mix until the first leaf was fully emerged, with 7-10 seedlings per pot. These plants were inoculated with an aqueous spore suspension of Puccinia triticina either prior to or after fungicide treatments. After inoculation the plants were kept in a dark dew room at 22° C. with 100% relative humidity overnight to permit spores to germinate and infect the leaf. The plants were then transferred to a greenhouse set at 24° C. for disease to develop. Fungicide formulation, application and disease assessment followed the procedures as described in the Example A.

[3] abbreviates: 24 h, 1 Day Protectant, read-out: SEPTTR disease control, 1 DP.
Where [4] appears, read: 72 h, 3 Day Curative, read-out: SEPTTR disease control, 3 DC.
Where [5] appears, read: 24 h, 1 Day Protectant, read-out: PUCCRT disease control, 1 DP.
Setting [6] is: 72 h, 3 Day Curative, read-out: PUCCRT disease control, 3 DC.

Consider `COc1ccnc(C(=O)N[C@H]2CCOC[C@@H](Cc3ccccc3)[C@H](C)OC2=O)c1OC(C)=O` [Compound 1], for which the pest or weed control at 121.5 g/ha in test [1] (setting [3]), in test [1] (setting [4]), in test [2] (setting [5]) and in test [2] (setting [6]) was greater than 70% throughout.
Consider `COCC[C@H]1OCC[C@H](NC(=O)c2nccc(OC)c2OC(C)=O)C(=O)O[C@@H](C)[C@@H]1Cc1ccccc1` [Compound 4], for which the pest or weed control at 121.5 g/ha in test [1] (setting [3]), in test [1] (setting [4]), in test [2] (setting [5]) and in test [2] (setting [6]) was greater than 70% each time.
Turning to `COc1ccnc(C(=O)N[C@H]2CCOC[C@@H](Cc3ccc(F)cc3)[C@H](C)OC2=O)c1OC(C)=O` [Compound 5], the pest or weed control at 121.5 g/ha was greater than 70% in test [1] (setting [3]), less than 70% in test [1] (setting [4]), greater than 70% in test [2] (setting [5]) and greater than 70% in test [2] (setting [6]).
For `CCCC[C@H]1OCC[C@H](NC(=O)c2nccc(OC)c2OC(C)=O)C(=O)O[C@@H](C)[C@@H]1Cc1ccc(F)cc1` [Compound 6], the pest or weed control at 121.5 g/ha in test [1] (setting [3]), in test [1] (setting [4]), in test [2] (setting [5]) and in test [2] (setting [6]) was greater than 70% throughout.
With `COc1ccnc(C(=O)N[C@H]2CCO[C@H](CCc3ccccc3)[C@@H](Cc3ccc(F)cc3)[C@H](C)OC2=O)c1OC(C)=O` [Compound 7, 2-(((2R,3S,4S,7S)-3-(4-fluorobenzyl)-4-methyl-6-oxo-2-phenethyl-1,5-dioxonan-7-yl)carbamoyl)-4-methoxypyridin-3-yl acetate], the pest or weed control at 121.5 g/ha in test [1] (setting [3]), in test [1] (setting [4]), in test [2] (setting [5]) and in test [2] (setting [6]) was greater than 70% in each case.
Regarding `COCC[C@H]1OCC[C@H](NC(=O)c2nccc(OC)c2OC(C)=O)C(=O)O[C@@H](C)[C@@H]1Cc1ccc(F)cc1` [Compound 8], the pest or weed control at 121.5 g/ha is greater than 70% in test [1] (setting [3]), less than 70% in test [1] (setting [4]), greater than 70% in test [2] (setting [5]) and greater than 70% in test [2] (setting [6]).
Regarding `COc1ccnc(C(=O)N[C@H]2CCO[C@H](CCc3ccccc3)[C@@H](CCC(C)C)[C@H](C)OC2=O)c1OC(C)=O` [Compound 9], the pest or weed control at 121.5 g/ha in test [1] (setting [3]), in test [1] (setting [4]), in test [2] (setting [5]) and in test [2] (setting [6]) was greater than 70% throughout.
Turning to `COc1ccnc(C(=O)N[C@H]2CCO[C@H](CCc3ccc(F)cc3)[C@@H](CCC(C)C)[C@H](C)OC2=O)c1OC(C)=O` [Compound 10], the pest or weed control at 121.5 g/ha in test [1] (setting [3]), in test [1] (setting [4]), in test [2] (setting [5]) and in test [2] (setting [6]) was greater than 70% throughout.
For `COc1ccnc(C(=O)N[C@H]2CCOC[C@@H](Cc3ccccc3-c3ccccc3)[C@H](C)OC2=O)c1OC(C)=O` [Compound 11], the pest or weed control at 121.5 g/ha in test [1] (setting [3]) is greater than 70%; in test [1] (setting [4]), less than 70%; in test [2] (setting [5]), greater than 70%; in test [2] (setting [6]), greater than 70%.
Turning to `COc1ccnc(C(=O)N[C@H]2CCO[C@H](Cc3ccccc3)[C@@H](CCC(C)C)[C@H](C)OC2=O)c1OC(C)=O` [Compound 12], the pest or weed control at 121.5 g/ha in test [1] (setting [3]), in test [1] (setting [4]), in test [2] (setting [5]) and in test [2] (setting [6]) was greater than 70% each time.
With `CCCC[C@H]1[C@H](C)OC(=O)[C@@H](NC(=O)c2nccc(OC)c2OC(C)=O)CCO[C@@H]1CCc1ccccc1` [Compound 13], the pest or weed control at 121.5 g/ha in test [1] (setting [3]), in test [1] (setting [4]), in test [2] (setting [5]) and in test [2] (setting [6]) was greater than 70% each time.
Consider `CCCC[C@H]1[C@H](C)OC(=O)[C@@H](NC(=O)c2nccc(OC)c2OC(C)=O)CCO[C@@H]1CC` [Compound 14], for which the pest or weed control at 121.5 g/ha in test [1] (setting [3]) was greater than 70%; in test [1] (setting [4]), less than 70%; in test [2] (setting [5]), greater than 70%; in test [2] (setting [6]), greater than 70%.
As to `CCCC[C@H]1[C@H](C)OC(=O)[C@@H](NC(=O)c2nccc(OC)c2OC(C)=O)CCO[C@@H]1COc1ccccc1` [Compound 15], the pest or weed control at 121.5 g/ha in test [1] (setting [3]), in test [1] (setting [4]), in test [2] (setting [5]) and in test [2] (setting [6]) was greater than 70% each time.
Regarding `COc1ccnc(C(=O)N[C@H]2CCOC[C@@H](Cc3ccccc3)[C@H](C)OC2=O)c1OCOC(C)=O` [Compound 16], the pest or weed control at 121.5 g/ha in test [1] (setting [3]) is less than 70%; in test [1] (setting [4]), less than 70%; in test [2] (setting [5]) it was greater than 70%; in test [2] (setting [6]), greater than 70%.
As to `CCCC[C@H]1OCC[C@H](NC(=O)c2nccc(OC)c2OCOC(C)=O)C(=O)O[C@@H](C)[C@@H]1Cc1ccccc1` [Compound 18], the pest or weed control at 121.5 g/ha in test [1] (setting [3]), in test [1] (setting [4]), in test [2] (setting [5]) and in test [2] (setting [6]) was greater than 70% throughout.
`COc1ccnc(C(=O)N[C@H]2CCO[C@H](Cc3ccccc3)[C@@H](Cc3ccccc3)[C@H](C)OC2=O)c1OCOC(C)=O` [Compound 19]: the pest or weed control at 121.5 g/ha in test [1] (setting [3]), in test [1] (setting [4]), in test [2] (setting [5]) and in test [2] (setting [6]) was greater than 70% each time.
As to `COCC[C@H]1OCC[C@H](NC(=O)c2nccc(OC)c2OCOC(C)=O)C(=O)O[C@@H](C)[C@@H]1Cc1ccccc1` [Compound 20], the pest or weed control at 121.5 g/ha in test [1] (setting [3]), in test [1] (setting [4]), in test [2] (setting [5]) and in test [2] (setting [6]) was greater than 70% throughout.
For the compound `COc1ccnc(C(=O)N[C@H]2CCOC[C@@H](Cc3ccc(F)cc3)[C@H](C)OC2=O)c1OCOC(C)=O` [Compound 21], the pest or weed control at 121.5 g/ha in test [1] (setting [3]) was greater than 70%; in test [1] (setting [4]), less than 70%; in test [2] (setting [5]) it was greater than 70%; in test [2] (setting [6]) it was greater than 70%.
In the case of `CC[C@H]1OCC[C@H](NC(=O)c2nccc(OC)c2OCOC(C)=O)C(=O)O[C@@H](C)[C@@H]1Cc1ccc(F)cc1` [Compound 22], the pest or weed control at 121.5 g/ha in test [1] (setting [3]), in test [1] (setting [4]), in test [2] (setting [5]) and in test [2] (setting [6]) was greater than 70% throughout.
In the case of `CCCC[C@H]1OCC[C@H](NC(=O)c2nccc(OC)c2OCOC(C)=O)C(=O)O[C@@H](C)[C@@H]1Cc1ccc(F)cc1` [Compound 23], the pest or weed control at 121.5 g/ha in test [1] (setting [3]), in test [1] (setting [4]), in test [2] (setting [5]) and in test [2] (setting [6]) was greater than 70% throughout.
